# Test results taken from PubChem BioAssay AID192 (DTP/NCI, 2004).
# Several values for one entry are separate records, joined by “and”; a condition that tells them apart may be missing. Identical values can stand only once. Inconclusive results and toxic doses are left out.
# System: BDF1 mice, B16 melanoma ip, median survival T/C
# Assay: NCI In Vivo Anticancer Drug Screen. Data for tumor model B16 Melanoma (intraperitoneal) in B6D2F1 (BDF1) mice
# Conditions: endpoint: median survival time, higher = longer survival
# Procedure, shortened: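 Each result divides a survival or tumor-size measurement in the compound-treated group by the same measurement in the vehicle group.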
# [1] = dose: 100.0 mg/kg/injection, schedule: Q01DX009 (ip), vehicle: Klucel (hydroxypropylcellulose) (HPC)
# [2] = dose: 200.0 mg/kg/injection, schedule: Q01DX009 (ip), vehicle: Klucel (hydroxypropylcellulose) (HPC)
# [3] = dose: 12.5 mg/kg/injection, schedule: Q01DX009 (ip), vehicle: saline
# [4] = dose: 25.0 mg/kg/injection, schedule: Q01DX009 (ip), vehicle: saline
# [5] = dose: 12.5 mg/kg/injection, schedule: Q01DX009 (ip), vehicle: Klucel (hydroxypropylcellulose) (HPC)
# [6] = dose: 25.0 mg/kg/injection, schedule: Q01DX009 (ip), vehicle: Klucel (hydroxypropylcellulose) (HPC)
# [7] = dose: 50.0 mg/kg/injection, schedule: Q01DX009 (ip), vehicle: Klucel (hydroxypropylcellulose) (HPC)
# [8] = dose: 100.0 mg/kg/injection, schedule: Q04DX003 (ip), vehicle: Klucel (hydroxypropylcellulose) (HPC)
structure (smiles),measurement,setting,value
CC[C@]1(O)C[C@H]2CN(CCc3c([nH]c4ccccc34)[C@@](C(=O)OC)(c3cc4c(cc3OC)N(C)[C@H]3[C@@](O)(C(=O)OC)[C@H](OC(C)=O)[C@]5(CC)C=CCN6CC[C@]43[C@@H]65)C2)C1,T/C,"dose: 0.03 mg/kg/injection, schedule: Q01DX009 (ip), vehicle: saline",152 % of control
same,T/C,"dose: 0.05 mg/kg/injection, schedule: Q01DX009 (ip), vehicle: saline",161 % of control
same,T/C,"dose: 0.06 mg/kg/injection, schedule: Q01DX009 (ip), vehicle: water",165 % of control
same,T/C,"dose: 0.1 mg/kg/injection, schedule: Q01DX009 (ip), vehicle: saline",152 % of control and 155 % of control
same,T/C,"dose: 0.12 mg/kg/injection, schedule: Q01DX009 (ip), vehicle: water",110 % of control
same,T/C,"dose: 0.2 mg/kg/injection, schedule: Q01DX009 (ip), vehicle: saline",186 % of control and 189 % of control
same,T/C,"dose: 0.22 mg/kg/injection, schedule: Q01DX009 (ip), vehicle: saline",196 % of control
same,T/C,"dose: 0.22 mg/kg/injection, schedule: Q01DX009 (ip), vehicle: water",197 % of control
same,T/C,"dose: 0.25 mg/kg/injection, schedule: Q01DX009 (ip), vehicle: water",163 % of control and 216 % of control
same,T/C,"dose: 0.36 mg/kg/injection, schedule: Q01DX009 (ip), vehicle: saline",240 % of control
same,T/C,"dose: 0.36 mg/kg/injection, schedule: Q01DX009 (ip), vehicle: water",181 % of control
same,T/C,"dose: 0.39 mg/kg/injection, schedule: Q04DX003 (ip), vehicle: saline",162 % of control
same,T/C,"dose: 0.4 mg/kg/injection, schedule: Q01DX009 (ip), vehicle: saline",219 % of control
same,T/C,"dose: 0.5 mg/kg/injection, schedule: Q04DX003 (ip), vehicle: saline",154 % of control
same,T/C,"dose: 0.6 mg/kg/injection, schedule: Q01DX009 (ip), vehicle: saline",250 % of control
same,T/C,"dose: 0.63 mg/kg/injection, schedule: Q04DX003 (ip), vehicle: saline",151 % of control
same,T/C,"dose: 0.65 mg/kg/injection, schedule: Q04DX003 (ip), vehicle: saline",164 % of control
same,T/C,"dose: 0.8 mg/kg/injection, schedule: Q01DX009 (ip), vehicle: saline",260 % of control and 299 % of control
same,T/C,"dose: 0.8 mg/kg/injection, schedule: Q04DX003 (ip), vehicle: water",161 % of control
same,T/C,"dose: 1.0 mg/kg/injection, schedule: Q04DX003 (ip), vehicle: saline",170 % of control
same,T/C,"dose: 1.08 mg/kg/injection, schedule: Q04DX003 (ip), vehicle: saline",201 % of control
same,T/C,"dose: 1.44 mg/kg/injection, schedule: Q04DX003 (ip), vehicle: water",190 % of control
same,T/C,"dose: 1.8 mg/kg/injection, schedule: Q04DX003 (ip), vehicle: saline",206 % of control
same,T/C,"dose: 2.0 mg/kg/injection, schedule: Q04DX003 (ip), vehicle: saline",212 % of control
same,T/C,"dose: 2.4 mg/kg/injection, schedule: Q04DX003 (ip), vehicle: water",221 % of control
same,T/C,"dose: 2.5 mg/kg/injection, schedule: Q04DX003 (ip), vehicle: saline",189 % of control
same,T/C,"dose: 3.2 mg/kg/injection, schedule: Q04DX003 (ip), vehicle: water",224 % of control
same,T/C,"dose: 4.0 mg/kg/injection, schedule: Q04DX003 (ip), vehicle: saline",254 % of control
same,T/C,"dose: 4.8 mg/kg/injection, schedule: Q01DX001 (ip), vehicle: water",158 % of control
same,T/C,"dose: 216.0 micrograms/kg/injection, schedule: Q01DX009 (ip), vehicle: saline",197 % of control
same,T/C,"dose: 360.0 micrograms/kg/injection, schedule: Q01DX009 (ip), vehicle: water",155 % of control
same,T/C,"dose: 389.0 micrograms/kg/injection, schedule: Q04DX003 (ip), vehicle: saline",158 % of control and 163 % of control
same,T/C,"dose: 600.0 micrograms/kg/injection, schedule: Q01DX009 (ip), vehicle: saline",216 % of control
same,T/C,"dose: 648.0 micrograms/kg/injection, schedule: Q04DX003 (ip), vehicle: saline",152 % of control and 171 % of control and 197 % of control
same,T/C,"dose: 1080.0 micrograms/kg/injection, schedule: Q04DX003 (ip), vehicle: saline",198 % of control
same,T/C,"dose: 1800.0 micrograms/kg/injection, schedule: Q04DX003 (ip), vehicle: saline",203 % of control and 230 % of control
same,T/C,"dose: 3000.0 micrograms/kg/injection, schedule: Q04DX003 (ip), vehicle: saline",213 % of control and 267 % of control
COc1ccccc1NC(=O)c1cc2ccccc2cc1O,T/C,"dose: 100.0 mg/kg/injection, schedule: Q01DX009 (ip), vehicle: saline",121 % of control
same,T/C,"dose: 400.0 mg/kg/injection, schedule: Q01DX009 (ip), vehicle: saline",118 % of control
CN(/N=N/c1nc[nH]c1C(N)=O)C(C)(C)C,T/C,"dose: 18.75 mg/kg/injection, schedule: Q04DX002 (ip), vehicle: Klucel (hydroxypropylcellulose) (HPC)",101 % of control
same,T/C,"dose: 37.5 mg/kg/injection, schedule: Q04DX002 (ip), vehicle: Klucel (hydroxypropylcellulose) (HPC)",107 % of control
same,T/C,"dose: 75.0 mg/kg/injection, schedule: Q04DX002 (ip), vehicle: Klucel (hydroxypropylcellulose) (HPC)",98 % of control
same,T/C,[1],95 % of control
same,T/C,"dose: 150.0 mg/kg/injection, schedule: Q04DX002 (ip), vehicle: Klucel (hydroxypropylcellulose) (HPC)",101 % of control
same,T/C,[2],90 % of control
same,T/C,"dose: 300.0 mg/kg/injection, schedule: Q04DX002 (ip), vehicle: Klucel (hydroxypropylcellulose) (HPC)",93 % of control
same,T/C,"dose: 400.0 mg/kg/injection, schedule: Q01DX009 (ip), vehicle: Klucel (hydroxypropylcellulose) (HPC)",104 % of control
Br/C=C/C[N+]12CN3CN(CN(C3)C1)C2,T/C,[3],117 % of control
same,T/C,[4],103 % of control
same,T/C,"dose: 50.0 mg/kg/injection, schedule: Q01DX009 (ip), vehicle: saline",110 % of control
CN1CCC=C(CN2c3ccccc3Sc3ccc(Cl)cc32)C1,T/C,[3],95 % of control
same,T/C,[4],94 % of control
Cc1cccc(CN2CCN(C(c3ccccc3)c3ccc(Cl)cc3)CC2)c1 (stereo unspecified),T/C,"dose: 3.12 mg/kg/injection, schedule: Q04DX003 (ip), vehicle: Klucel (hydroxypropylcellulose) (HPC)",97 % of control
same,T/C,"dose: 6.25 mg/kg/injection, schedule: Q04DX003 (ip), vehicle: Klucel (hydroxypropylcellulose) (HPC)",101 % of control
same,T/C,[5],86 % of control
same,T/C,"dose: 12.5 mg/kg/injection, schedule: Q04DX003 (ip), vehicle: Klucel (hydroxypropylcellulose) (HPC)",96 % of control
same,T/C,[6],86 % of control
same,T/C,"dose: 25.0 mg/kg/injection, schedule: Q04DX003 (ip), vehicle: Klucel (hydroxypropylcellulose) (HPC)",96 % of control
same,T/C,[7],86 % of control
same,T/C,"dose: 50.0 mg/kg/injection, schedule: Q04DX003 (ip), vehicle: Klucel (hydroxypropylcellulose) (HPC)",89 % of control
same,T/C,[8],88 % of control
Cc1cc(N(CCOS(C)(=O)=O)CCOS(C)(=O)=O)ccc1C=Nc1ccc(-c2nc(Cc3ccccc3)sc2C)cc1,T/C,[6],165 % of control
same,T/C,[7],174 % of control
same,T/C,[1],107 % of control
CCC(C)C(C)(COC(N)=O)COC(N)=O (stereo unspecified),T/C,[8],97 % of control
same,T/C,"dose: 200.0 mg/kg/injection, schedule: Q04DX003 (ip), vehicle: Klucel (hydroxypropylcellulose) (HPC)",102 % of control
same,T/C,"dose: 400.0 mg/kg/injection, schedule: Q04DX003 (ip), vehicle: Klucel (hydroxypropylcellulose) (HPC)",105 % of control
O=[N+]([O-])c1ccccc1O,T/C,"dose: 12.5 mg/kg/injection, schedule: Q01DX009 (ip), vehicle: saline with Tween-80",97 % of control
same,T/C,"dose: 12.5 mg/kg/injection, schedule: Q04DX003 (ip), vehicle: saline with Tween-80",94 % of control
same,T/C,"dose: 25.0 mg/kg/injection, schedule: Q01DX009 (ip), vehicle: saline with Tween-80",92 % of control
same,T/C,"dose: 25.0 mg/kg/injection, schedule: Q04DX003 (ip), vehicle: saline with Tween-80",91 % of control
same,T/C,"dose: 50.0 mg/kg/injection, schedule: Q01DX009 (ip), vehicle: saline with Tween-80",100 % of control
same,T/C,"dose: 50.0 mg/kg/injection, schedule: Q04DX003 (ip), vehicle: saline with Tween-80",100 % of control
Cc1ccc(C)n1-c1ccccc1,T/C,"dose: 100.0 mg/kg/injection, schedule: Q01DX009 (ip), vehicle: saline + alcohol",101 % of control
same,T/C,"dose: 200.0 mg/kg/injection, schedule: Q01DX009 (ip), vehicle: saline + alcohol",99 % of control
c1ccc(Oc2ccccn2)cc1,T/C,[7],111 % of control
same,T/C,[1],117 % of control
same,T/C,[2],123 % of control
Oc1ccc2ccccc2c1C1=NNc2n[nH]c(=S)n2N1,T/C,[5],100 % of control
same,T/C,[6],103 % of control
same,T/C,[7],112 % of control
